Measurements as given in article PMC7179450, “Primary Human Hepatocytes, But not HepG2 or Balb/c 3T3 Cells, Efficiently Metabolize Salinomycin and Are Resistant to Its Cytotoxicity” (Molecules, 2020).
Several values for one entry are separate records, joined by “and”; a condition that tells them apart may be missing. Identical values can stand only once. Like-named read-outs stand apart in the source and are kept apart here.

Experiments:
Balb/c 3T3 cells = experiment: TPC assay in Balb/c 3T3; type: cell-based, mouse; details: for EC50: Mus musculus, read-out: EC50 (effective concentration)
Protocol: The HepG2 cell line was purchased from the American Type Culture Collection (ATCC® HB-8065™). The cells were cultured in Minimum Essential Medium Eagle (MEME) (Sigma–Aldrich Co. (St. Louis, MO, USA)). Normal murine embryonic fibroblasts, Balb/c 3T3 clone A31 cell line (gift from Department of Swine Diseases of the National Veterinary Research Institute in Pulawy) was cultured in Dulbecco’s Modified Eagle’s Medium (DMEM) (Invitrogen Corporations (Paisley, UK)). The media were supplemented with 10% BCS (Balb/c 3T3), 10% FBS (HepG2), 1% L-glutamine, and 1% antibiotic solution. The cells were maintained in 75 cm^2 cell culture flasks in humidified incubator at 37 °C, in an atmosphere of 5% CO2. The medium was refreshed every two or three days and the cells were trypsinized by 0.25% trypsin–0.02% EDTA after reaching 70–80% confluence. The initial cell viability was determined with the trypan blue exclusion test. Single cell suspensions were prepared and adjusted to a density of 2 × 10^5 cell/mL (HepG2) and 1 × 10^5 cell/mL (Balb/c 3T3). The cell suspension was transferred to 96-well plates (100 µL/well) and incubated for 24 h before exposure to the studied drugs.
(§1) The concentration ranges of the drugs were chosen according to their solubility and their plasma level. Each drug was dissolved in DMSO. The final concentration of DMSO was 0.1% or 0.2% in the medium for both samples and corresponding controls. […] All drug solutions in medium were freshly prepared and protected from light. SAL was tested in seven concentrations from 0.39 to 25 µg/mL. Tiamulin was added in two concentrations (1 and 10 µg/mL) or just one concentration (1 µg/mL) to cell lines or human hepatocytes, respectively. […] The cytotoxicity was assessed after 24 and 48 h of exposure of cell lines or after 12 and 24 h exposure of PHH. […]
The assay was based on staining total cellular protein [14]. […] The absorbance was measured at 595 nm in a microplate reader using blank as a reference. Cytotoxicity was expressed as a percentage of the negative control (0.1% or 0.2% DMSO).

[1] = rat, in vivo; cited from earlier work
[2] = Cytotoxicity battery in human hepatoma cells; type: cell-based; details: HepG2 human hepatoma cells, after 24 h, read-out: cytotoxic concentrations
Protocol: as §1, with “respectively. Prednisolone was tested in one concentration—1 µg/mL independent of the type of cells.” for “respectively.”
The metabolic activity of living cells was assessed by measuring the activity of dehydrogenases. […] The plate was shaken for 15 min at room temperature and transferred to a microplate reader to measure the absorbance at 570 nm, using a blank as a reference. Cytotoxicity was expressed as a percentage of the negative control (0.1% or 0.2% DMSO).
The assay, based on staining of living cells by neutral red (NR), was performed according to the protocol described by Borenfreund and Puerner. […] After 10 min of shaking, the absorbance of the dissolved NR was measured at 540 nm using a blank as a reference. […]

For `CC[C@@H](C(=O)[C@@H](C)[C@@H](O)[C@H](C)[C@@H]1O[C@@H]([C@@H](CC)C(=O)O)CC[C@@H]1C)[C@H]1O[C@]2(C=C[C@@H](O)[C@]3(CC[C@@](C)([C@H]4CC[C@](O)(CC)[C@H](C)O4)O3)O2)[C@H](C)C[C@@H]1C` [SAL, salinomycin], the “lowest concentration with significant effect on total protein content” value (Balb/c 3T3 cells; Balb/c 3T3, 24 h, SAL alone or in both drug combinations (Figure S3)) was 0.39 µg/mL, the EC50 (Balb/c 3T3 cells; BALB/c3T3, 24 h) was 7.9 ± 1.1 µg/mL and the EC50 (Balb/c 3T3 cells; BALB/c3T3, 48 h) was 1.4 ± 0.5 µg/mL. For the same compound, the “unchanged SAL in excreta, share of administered dose” value [1] was 2% and the EC50 at 24 h [2] was 800 nM to 20.5 µM and 0.6 µg/mL to 15.4 µg/mL.
